One assay deals with T1, KAT6A (Homo sapiens, UniProt Q92794).
T1 construct: His-TEV tag (N, cleaved yes); made in house
Briefly: KAT6A enzyme inhibition assay (SAMDI mass spectrometry). It counts as biochemical. The following applies: His-TEV-KAT6A 501-784 enzyme construct.

The next assay addresses T2, KAT5 (Homo sapiens, UniProt Q92993).
T2 construct: His-TEV tag (N, cleaved yes); made in house
Briefly: KAT5 enzyme inhibition assay (SAMDI mass spectrometry). Conditions: His-TEV-FL KAT5-Flag enzyme construct. The class given is biochemical.

The text below walks through data of patent publication US20220267260A1, “COMPOUNDS CONTAINING A SULFONIC GROUP AS KAT INHIBITORS” (Epizyme, Inc., priority 2016, published 2022).

Structures are written as SMILES.

T1 sequence (Q92794 with tags, fused parts or gaps): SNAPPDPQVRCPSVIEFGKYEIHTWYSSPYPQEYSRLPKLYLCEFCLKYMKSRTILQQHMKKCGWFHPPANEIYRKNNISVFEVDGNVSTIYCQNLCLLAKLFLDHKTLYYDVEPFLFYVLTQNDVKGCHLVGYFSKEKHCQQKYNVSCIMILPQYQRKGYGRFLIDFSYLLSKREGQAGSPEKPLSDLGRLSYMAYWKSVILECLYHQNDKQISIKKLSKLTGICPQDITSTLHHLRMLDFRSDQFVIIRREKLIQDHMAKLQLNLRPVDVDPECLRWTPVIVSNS
T2 sequence (Q92993 with tags, fused parts or gaps): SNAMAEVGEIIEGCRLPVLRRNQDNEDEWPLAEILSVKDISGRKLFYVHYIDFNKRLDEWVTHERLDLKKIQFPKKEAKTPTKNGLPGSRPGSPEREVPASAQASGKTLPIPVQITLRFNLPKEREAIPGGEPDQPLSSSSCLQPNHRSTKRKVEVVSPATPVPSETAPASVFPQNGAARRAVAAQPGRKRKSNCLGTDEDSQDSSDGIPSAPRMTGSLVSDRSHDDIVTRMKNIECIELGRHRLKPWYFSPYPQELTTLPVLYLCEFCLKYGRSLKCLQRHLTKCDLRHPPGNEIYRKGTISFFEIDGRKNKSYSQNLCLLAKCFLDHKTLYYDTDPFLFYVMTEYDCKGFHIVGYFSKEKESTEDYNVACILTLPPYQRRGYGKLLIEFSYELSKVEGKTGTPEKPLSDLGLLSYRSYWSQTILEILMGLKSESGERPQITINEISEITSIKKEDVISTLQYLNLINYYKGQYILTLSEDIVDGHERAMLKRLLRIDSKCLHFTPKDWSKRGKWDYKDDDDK

With `Cc1cc(-c2ccccc2)cc(C(=O)NNS(=O)(=O)C2CN(CCO)C2)c1F` [Compound I-42], the IC50 on KAT6A lay in the range of 10 to 50 µM; against KAT5, 50 to 100 µM.

In the case of `CCN(C)C(=O)N1CCC(CS(=O)(=O)NNC(=O)c2cc(-c3cccc(C)c3)cc(Cl)c2F)C1` (stereo not drawn) [Compound I-519], the IC50 at KAT6A and against KAT5 was no more than 10 µM each time.

With `O=C(NNS(=O)(=O)c1ccccc1)N1CCCCC1` [Compound I-254], the half-inhibitory concentration (IC50) against KAT6A and at KAT5 was greater than 100 µM each time.

For the compound `Cc1cc(-c2cccc(OCCN(C)C)c2)cc(C(=O)NNS(=O)(=O)c2ccccc2)c1F` [Compound I-386], the concentration for half-maximal inhibition (IC50) against KAT6A was 10 to 50 µM; on KAT5 it was greater than 100 µM.

Take `Cc1cccc(-c2cc(Cl)c(F)c(C(=O)NNS(=O)(=O)C3CCCCC3)c2)c1` [Compound I-404]: the IC50 at KAT6A and at KAT5 was 10 to 50 µM throughout.

Consider `Cc1c(-c2ccccc2)ccc(F)c1C(=O)NNS(=O)(=O)c1ccc(Cl)cc1` [Compound I-241], for which the IC50 at KAT6A is 10 to 50 µM; at KAT5 it was 50 to 100 µM.

In the case of `COCCN1CCCC(C(C)S(=O)(=O)NNC(=O)c2cc(-c3ccccc3)cc(C)c2F)C1` (stereo not drawn) [Compound I-334], the IC50 against KAT6A and at KAT5 was 10 to 50 µM each time.

Consider `Cn1cnc(-c2ccc(F)c(C(=O)NNS(=O)(=O)c3ccccc3)c2F)c1` [Compound I-259], for which the 50% inhibitory concentration (IC50) was no more than 10 µM at KAT6A and 10 to 50 µM at KAT5.

`COc1cc(Cl)c(F)c(C(=O)NNS(=O)(=O)CC2CCCCC2)c1` [Compound I-394]: the IC50 is 10 to 50 µM against KAT6A and no more than 10 µM against KAT5.

For the compound `COCCOc1cccc(-c2cc(C)c(F)c(C(=O)NNS(=O)(=O)c3ccccc3)c2)c1` [Compound I-279], the concentration for half-maximal inhibition (IC50) is no more than 10 µM on KAT6A and 10 to 50 µM on KAT5.

Turning to `Cc1cc(-c2ccccc2)cc(C(=O)NNS(=O)(=O)C(C)C2CCN(C(=O)OC(C)(C)C)CC2)c1F` (stereo not drawn) [Compound I-307], the IC50 against KAT6A was no more than 10 µM; against KAT5 it was 10 to 50 µM.

As for `Cc1cccc(-c2cc(C)c(F)c(C(=O)NNS(=O)(=O)C3CCCCC3)c2)c1` [Compound I-301], the values for the IC50 against KAT6A and against KAT5 were 50 to 100 µM and 10 to 50 µM, respectively.

For the compound `Cc1cccc(-c2cc(Cl)c(F)c(C(=O)NNS(=O)(=O)CC3CCNC3)c2)c1` (stereo not drawn) [Compound I-517], the IC50 on KAT6A and on KAT5 was greater than 100 µM each time.

`O=C(NNS(=O)(=O)c1ccccc1)c1cc(-c2ccccc2)cc2[nH]ccc12` [Compound I-16]: the IC50 against KAT6A was 50 to 100 µM; at KAT5, greater than 100 µM.

For the compound `Cc1cc(-c2ccccc2)cc(C(=O)NNS(=O)(=O)C2CCN(Cc3ccc(Cl)cc3)C2)c1F` (stereo not drawn) [Compound I-24], the IC50 against KAT6A and against KAT5 was 10 to 50 µM in each case.

As for `O=C(NNC(c1ccccc1)C(F)(F)F)c1ccccc1F` (stereo not drawn) [Compound I-134], the half-inhibitory concentration (IC50) against KAT6A and at KAT5 was greater than 100 µM in each case.

With `Cc1cc(-c2ccccc2)cc(C(=O)NNS(=O)(=O)CC2CCN(C)CC2)c1F` [Compound I-349], the IC50 at KAT6A and on KAT5 was 10 to 50 µM throughout.

`O=C(NS(=O)(=O)Nc1ccccc1)c1c(F)ccc(-c2ccccc2)c1F` [Compound I-212]: the IC50 is 50 to 100 µM on KAT6A and greater than 100 µM at KAT5.

Turning to `COc1cccc(S(=O)(=O)NNC(=O)c2ccccc2F)c1` [Compound I-177], the values for the IC50 at KAT6A and against KAT5 were 10 to 50 µM and greater than 100 µM, respectively.

With `COCCN1CCCC(CS(=O)(=O)NNC(=O)c2cc(-c3cccc(F)c3)cc(C)c2F)C1` (stereo not drawn) [Compound I-408], the values for the IC50 on KAT6A and on KAT5 were 10 to 50 µM and no more than 10 µM, respectively.

As to `CCC(=O)N1CCC(S(=O)(=O)NNC(=O)c2cc(-c3ccccc3)cc(C)c2F)CC1` [Compound I-107], the IC50 on KAT6A and at KAT5 was 10 to 50 µM each time.

As for `Cc1cccc(C(=O)NNS(=O)(=O)Cc2ccccc2)c1F` [Compound I-39], the IC50 is greater than 100 µM against KAT6A and 10 to 50 µM on KAT5.

Turning to `Cc1cc(Cl)cc(C(=O)NNS(=O)(=O)C2CCCCC2)c1F` [Compound I-299], the 50% inhibitory concentration (IC50) on KAT6A was 50 to 100 µM; on KAT5 it was 10 to 50 µM.

Turning to `O=C(NNS(=O)(=O)c1ccccc1)c1c(F)ccc(-c2cn[nH]c2)c1F` [Compound I-167], the concentration for half-maximal inhibition (IC50) against KAT6A lay in the range of 10 to 50 µM; against KAT5 it was 50 to 100 µM.

Regarding `O=S(=O)(NNc1n[nH]c2c(F)cccc12)c1ccccc1` [Compound I-48], the half-maximal inhibitory concentration (IC50) on KAT6A and on KAT5 was greater than 100 µM each time.

Turning to `Nc1ccc(-c2cc(Cl)c(F)c(C(=O)NNS(=O)(=O)C3CCOCC3)c2)cc1` [Compound I-455], the results for the IC50 on KAT6A and at KAT5 were greater than 100 µM and 10 to 50 µM, respectively.

Regarding `Cc1cc(-c2ccccc2)cc(C(=O)NNS(=O)(=O)C2CCN(Cc3cccc(Cl)c3)C2)c1F` (stereo not drawn) [Compound I-30], the half-maximal inhibitory concentration (IC50) at KAT6A and against KAT5 was 10 to 50 µM each time.

On to `CCNC(=O)c1cc(Cl)c(F)c(C(=O)NNS(=O)(=O)C2CCOCC2)c1` [Compound I-492], for which the half-inhibitory concentration (IC50) on KAT6A and at KAT5 was greater than 100 µM in each case.

Take `O=C(NNS(=O)(=O)CC1CCOCC1)c1cc(-c2ccccc2)cc(Cl)c1F` [Compound I-400]: the IC50 at KAT6A and on KAT5 was no more than 10 µM throughout.

For the compound `O=C(NNS(=O)(=O)c1ccccc1)c1cnn(-c2ccccc2)c1` [Compound I-197], the IC50 on KAT6A and at KAT5 was greater than 100 µM in each case.

As for `Cc1cc(-c2cccc(F)c2)cc(C(=O)NNS(=O)(=O)CC2CCCN(C(=O)CCN(C)C(=O)OC(C)(C)C)C2)c1F` (stereo not drawn) [Compound I-331], the IC50 on KAT6A and on KAT5 was no more than 10 µM throughout.

On to `COCCOc1cccc(-c2cc(C)c(F)c(C(=O)NNS(=O)(=O)C3CCCCC3)c2)c1` [Compound I-272], for which the IC50 lay within 50 to 100 µM against KAT6A and 10 to 50 µM against KAT5.

On to `CCc1cc(Cl)c(F)c(C(=O)NNS(=O)(=O)CC2CCOCC2)c1` [Compound I-423], for which the values for the half-inhibitory concentration (IC50) at KAT6A and against KAT5 were greater than 100 µM and 10 to 50 µM, respectively.

In the case of `Cn1nc(NNS(=O)(=O)c2ccccc2)c2cccc(-c3ccccc3)c21` [Compound I-49], the half-maximal inhibitory concentration (IC50) against KAT6A and against KAT5 was greater than 100 µM each time.

`Cc1cc(-c2ccccc2)cc(C(=O)NNS(=O)(=O)C2CCN(C)C2)c1F` (stereo not drawn) [Compound I-31]: the half-inhibitory concentration (IC50) was 10 to 50 µM against KAT6A and 50 to 100 µM at KAT5.

In the case of `O=C(NNS(=O)(=O)C1CCCCC1)c1cc(-c2ccccc2)cc2[nH]cnc12` [Compound I-375], the 50% inhibitory concentration (IC50) against KAT6A and on KAT5 was 50 to 100 µM in each case.

For `Cc1c(C(=O)NNS(=O)(=O)C2CCCCC2)cccc1-c1ccccc1` [Compound I-363], the IC50 against KAT6A and against KAT5 was greater than 100 µM throughout.

For `COc1cc(Cl)c(F)c(C(=O)NNS(=O)(=O)C2CCCCC2)c1` [Compound I-393], the values for the IC50 on KAT6A and against KAT5 were greater than 100 µM and no more than 10 µM, respectively.

Take `COc1ccccc1-c1cc(C)c(F)c(C(=O)NNS(=O)(=O)CC2CCCCC2)c1` [Compound I-370]: the IC50 against KAT6A is greater than 100 µM; on KAT5, 10 to 50 µM.

On to `O=C(NNS(=O)(=O)c1cccc(Cl)c1)c1ccccc1F` [Compound I-127], for which the IC50 on KAT6A is 10 to 50 µM; on KAT5 it was greater than 100 µM.

With `Cc1cccc(F)c1C(=O)NNS(=O)(=O)CC(Cc1ccccc1)C(C)C` (stereo not drawn) [Compound I-266], the IC50 at KAT6A and on KAT5 was greater than 100 µM in each case.

Take `Cc1cc(-c2ccccc2Cl)cc(C(=O)NNS(=O)(=O)C2CCCCC2)c1F` [Compound I-318]: the concentration for half-maximal inhibition (IC50) against KAT6A and at KAT5 was 50 to 100 µM in each case.

On to `CC(=O)N1CCC(CS(=O)(=O)NNC(=O)c2cc(-c3ccccc3)cc(C)c2F)C1` (stereo not drawn) [Compound I-335], for which the 50% inhibitory concentration (IC50) on KAT6A and against KAT5 was no more than 10 µM in each case.

For the compound `CCc1cc(C)c(F)c(C(=O)NNS(=O)(=O)C2CCCCC2)c1` [Compound I-300], the values for the IC50 against KAT6A and at KAT5 were 50 to 100 µM and 10 to 50 µM, respectively.

For `O=C(NNS(=O)(=O)C1CCNCC1)c1cc(Cl)cc(Cl)c1F` [Compound I-406], the half-inhibitory concentration (IC50) against KAT6A and on KAT5 was greater than 100 µM each time.

For `COCCN1CC(S(=O)(=O)NNC(=O)c2cccc(C)c2F)C1` [Compound I-103], the IC50 on KAT6A and against KAT5 was greater than 100 µM throughout.

Take `COCCN1CCC(CS(=O)(=O)NNC(=O)c2cc(-c3ccccc3)cc(C)c2F)CC1` [Compound I-507]: the half-maximal inhibitory concentration (IC50) against KAT6A and against KAT5 was no more than 10 µM throughout.

For `COCCNC(=O)c1cccc(-c2cc(C)c(F)c(C(=O)N(N)S(=O)(=O)c3ccccc3)c2)c1` [Compound I-477], the concentration for half-maximal inhibition (IC50) at KAT6A and against KAT5 was greater than 100 µM in each case.

As for `Cc1cc(Cl)cc(C(=O)NNS(=O)(=O)CC2CCCCC2)c1F` [Compound I-276], the IC50 against KAT6A was 10 to 50 µM; against KAT5 it was no more than 10 µM.

Consider `COCC(=O)N1CC(CS(=O)(=O)NNC(=O)c2cc(-c3ccccc3)cc(C)c2F)C1` [Compound I-310], for which the 50% inhibitory concentration (IC50) is no more than 10 µM against KAT6A and 10 to 50 µM at KAT5.

With `Cc1cc(-c2ccc(C(C)C)cc2)cc(C(=O)NNS(=O)(=O)c2ccccc2)c1F` [Compound I-384], the IC50 is no more than 10 µM against KAT6A and greater than 100 µM on KAT5.

For `Cc1cnc(CNC(=O)c2cc(-c3ccccc3)cc(C)c2F)[nH]1` [Compound I-295], the half-inhibitory concentration (IC50) against KAT6A and against KAT5 was greater than 100 µM in each case.

Consider `COc1ccccc1CS(=O)(=O)NNC(=O)c1cc(-c2ccccc2)cc(C)c1F` [Compound I-79], for which the IC50 against KAT6A and on KAT5 was no more than 10 µM in each case.

For the compound `Cc1ccccc1C(=O)NNS(=O)(=O)c1ccccc1` [Compound I-148], the IC50 on KAT6A and against KAT5 was greater than 100 µM throughout.

For the compound `Cc1cc(C2CCCN(C)C2)cc(C(=O)NNS(=O)(=O)C2CCCCC2)c1F` (stereo not drawn) [Compound I-287], the IC50 at KAT6A and against KAT5 was greater than 100 µM each time.

With `CC(C)(C)OC(=O)N1CCCC(CS(=O)(=O)NNC(=O)c2cc(-c3cccc(F)c3)cc(Cl)c2F)C1` (stereo not drawn) [Compound I-396], the 50% inhibitory concentration (IC50) on KAT6A and against KAT5 was no more than 10 µM throughout.

In the case of `O=C(NNS(=O)(=O)c1ccccc1)c1ccc(F)cc1` [Compound I-193], the 50% inhibitory concentration (IC50) at KAT6A was 50 to 100 µM; against KAT5 it was greater than 100 µM.
